Experimental findings from PMC6815239 (Nature chemistry, 2019) are described below.

One experiment deals with T1, MalB (Malbranchea aurantiaca, UniProt L0E2Y5).
T1 sequence (L0E2Y5 1-369): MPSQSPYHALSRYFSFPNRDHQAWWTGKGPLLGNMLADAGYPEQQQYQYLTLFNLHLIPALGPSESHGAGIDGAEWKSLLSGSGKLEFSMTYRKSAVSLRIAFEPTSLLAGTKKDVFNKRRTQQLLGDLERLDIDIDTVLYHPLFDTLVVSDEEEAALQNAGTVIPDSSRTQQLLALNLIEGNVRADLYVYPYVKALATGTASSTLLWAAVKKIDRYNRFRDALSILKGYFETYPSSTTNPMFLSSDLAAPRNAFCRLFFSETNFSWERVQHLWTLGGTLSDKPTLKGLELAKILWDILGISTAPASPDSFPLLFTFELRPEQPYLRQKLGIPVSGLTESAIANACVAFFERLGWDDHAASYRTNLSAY
The experiment in a line: prenyltransferase assay, LC/MS. In kind it is biochemical. To be noted: substrate-loaded MalG domains, NADPH.

A further experiment deals with T2, MalE (Malbranchea aurantiaca, UniProt L0E2P7).
T2 sequence (L0E2P7 1-438): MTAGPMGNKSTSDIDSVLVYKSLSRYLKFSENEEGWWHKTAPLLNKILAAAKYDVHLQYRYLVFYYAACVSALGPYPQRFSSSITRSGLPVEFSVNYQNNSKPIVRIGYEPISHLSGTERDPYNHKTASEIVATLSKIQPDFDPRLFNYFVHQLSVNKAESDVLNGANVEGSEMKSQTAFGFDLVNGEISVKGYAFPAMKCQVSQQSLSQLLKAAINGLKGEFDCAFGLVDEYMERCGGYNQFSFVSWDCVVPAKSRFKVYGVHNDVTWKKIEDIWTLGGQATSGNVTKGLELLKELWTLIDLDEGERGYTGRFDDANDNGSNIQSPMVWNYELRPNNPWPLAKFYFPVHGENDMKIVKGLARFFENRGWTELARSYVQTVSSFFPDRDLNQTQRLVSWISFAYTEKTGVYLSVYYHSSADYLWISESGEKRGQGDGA
The experiment in a line: prenyltransferase assay, LC/MS. In kind it is biochemical. To be noted: substrate-loaded MalG domains, NADPH.

In the next experiment the target is MalG R (Malbranchea aurantiaca, UniProt L0E2Z1). The experiment in a line: LC/MS product formation. In kind it is biochemical. To be noted: substrate analog 23 loaded on MalG T2.
Sequence of MalG R (L0E2Z1 1950-2345): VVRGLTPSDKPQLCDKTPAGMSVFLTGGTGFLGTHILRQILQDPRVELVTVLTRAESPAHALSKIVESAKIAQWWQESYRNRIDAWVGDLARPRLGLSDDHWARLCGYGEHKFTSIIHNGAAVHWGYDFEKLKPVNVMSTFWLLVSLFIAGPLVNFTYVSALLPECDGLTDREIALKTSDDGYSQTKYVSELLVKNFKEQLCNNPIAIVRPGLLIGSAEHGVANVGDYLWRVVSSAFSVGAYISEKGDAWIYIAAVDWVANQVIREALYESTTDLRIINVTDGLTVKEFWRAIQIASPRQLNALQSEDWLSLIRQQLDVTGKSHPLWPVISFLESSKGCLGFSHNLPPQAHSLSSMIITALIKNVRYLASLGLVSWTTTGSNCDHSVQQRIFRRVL
In experiment [1] the target is T3, PhqE (Penicillium fellutanum, UniProt L0E2Z4). The experiment in a line: X-ray crystal structure. The note with it: crystals grown with NAD+. In kind it is binding.
T3 sequence (L0E2Z4 whole entry): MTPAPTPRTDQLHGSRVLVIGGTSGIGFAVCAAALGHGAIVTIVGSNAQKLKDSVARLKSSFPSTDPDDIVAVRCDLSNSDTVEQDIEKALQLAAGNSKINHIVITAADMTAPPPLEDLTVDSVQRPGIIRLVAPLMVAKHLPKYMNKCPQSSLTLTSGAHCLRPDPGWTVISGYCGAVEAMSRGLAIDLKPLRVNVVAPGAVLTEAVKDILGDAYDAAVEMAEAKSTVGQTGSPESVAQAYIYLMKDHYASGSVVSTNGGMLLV
A further experiment addresses MalA (Malbranchea aurantiaca, UniProt L0E155). The experiment in a line: LC/MS halogenation assay. In kind it is biochemical. To be noted: full pathway reconstitution, NaCl.
Experiment [2] addresses T3, PhqE. The experiment in a line: X-ray crystal structure, […] Å. In kind it is binding. The note with it: complex with (+)-premalbrancheamide.

Sequence of MalA (L0E155 whole entry): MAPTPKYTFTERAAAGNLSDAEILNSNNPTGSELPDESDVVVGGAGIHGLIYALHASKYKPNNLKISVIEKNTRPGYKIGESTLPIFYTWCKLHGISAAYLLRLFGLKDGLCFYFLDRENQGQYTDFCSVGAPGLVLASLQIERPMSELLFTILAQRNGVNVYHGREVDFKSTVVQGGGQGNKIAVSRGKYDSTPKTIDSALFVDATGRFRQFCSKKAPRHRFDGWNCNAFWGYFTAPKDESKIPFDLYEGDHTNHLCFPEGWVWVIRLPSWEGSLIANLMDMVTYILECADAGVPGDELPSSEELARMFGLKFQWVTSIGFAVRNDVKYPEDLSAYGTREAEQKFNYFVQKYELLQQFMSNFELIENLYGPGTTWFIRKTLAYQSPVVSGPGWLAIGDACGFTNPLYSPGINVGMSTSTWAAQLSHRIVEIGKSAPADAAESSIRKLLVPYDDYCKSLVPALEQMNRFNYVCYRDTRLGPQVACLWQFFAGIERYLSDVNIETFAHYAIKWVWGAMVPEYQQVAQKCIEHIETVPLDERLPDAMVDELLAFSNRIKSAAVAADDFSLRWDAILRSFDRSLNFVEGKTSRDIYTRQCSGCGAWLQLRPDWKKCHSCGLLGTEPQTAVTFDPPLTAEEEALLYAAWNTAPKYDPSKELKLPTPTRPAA

As to `CC(C)=CCOP(=O)(O)OP(=O)(O)O` [dimethylallyl pyrophosphate], the “prenyltransferase assay, LC/MS” value is listed as “whereas MalB displayed modest activity” at MalB and “dimethylallyl pyrophosphate (DMAPP), the prenyl donor. MalE readily catalyzed a C2 reverse prenyl transfer” at MalE. Regarding `NC(=O)C1=CN([C@@H]2O[C@H](COP(=O)(O)OP(=O)(O)OC[C@H]3O[C@@H](n4cnc5c(N)ncnc54)[C@H](OP(=O)(O)O)[C@@H]3O)[C@@H](O)[C@H]2O)C=CC1` [NADPH], the LC/MS product formation entry on MalG R is on record as “NADPH was the preferred cofactor in this reaction”. Take `NC(=O)c1ccc[n+]([C@@H]2O[C@H](COP(=O)(O)OP(=O)(O)OC[C@H]3O[C@@H](n4cnc5c(N)ncnc54)[C@H](O)[C@@H]3O)[C@@H](O)[C@H]2O)c1` [NAD^+]: the X-ray crystal structure entry on PhqE [1] is “while NAD^+ showed weak electron density”.

With `Cc1cc2c(cc1C)N(C[C@H](O)[C@H](O)[C@H](O)COP(=O)(O)OP(=O)(O)OC[C@H]1O[C@@H](n3cnc4c(N)ncnc43)[C@H](O)[C@@H]1O)c1[nH]c(=O)[nH]c(=O)c1N2` [FADH2], at MalA, the LC/MS halogenation assay result was “We incubated MalA with its pathway partners (L-Pro and L-Trp MalG, MalE and MalC, NADPH”. As for `NC(=O)c1ccc[n+]([C@@H]2O[C@H](COP(=O)(O)OP(=O)(O)OC[C@H]3O[C@@H](n4cnc5c(N)ncnc54)[C@H](OP(=O)(O)O)[C@@H]3O)[C@@H](O)[C@H]2O)c1` [NADP^+], at PhqE [2], the “X-ray crystal structure, 2.4 Å” value was “PhqE crystals grown with NADP^+ showed strong electron density for the cofactor”.
